Measured values published in US10676468B2, “N-(3-heteroarylaryl)-4-arylarylcarboxamides and analogs as hedgehog pathway inhibitors and use thereof” (IMPACT Therapeutics, Inc., priority 2012, dated 2020).

What was measured:
Assay type in all cases: cell-based, mouse
[1] = test system: Hedgehog Signaling Pathway; assay: SAG-induced differentiation of C3H10T1/2 cells into osteoblastic cells, intracellular alkaline phosphatase activity; conditions: Mus musculus, C3H 10T1/2, 120 h, 1 μM SAG, 5 days, alkaline phosphatase activity (OD405), read-out: IC50 values of compounds that inhibit Hh pathway
How it was run: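 Mouse C3H10T1/2 cells were induced with SAG and exposed to compound (10 μM to 1 nM) for 5 days at 37 °C. Cells were lysed in 0.2% Triton, and alkaline phosphatase activity was read as OD405 over 30 min at 37 °C in pH 9.8 substrate buffer. IC50 came from a non-linear fit of background-subtracted OD405 against log concentration.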

[2] = test system: Hedgehog Signaling Pathway; assay: Gli-Luc reporter gene cell assay in C3H10T1/2/Gli-Luc cells stimulated with Shh; conditions: Mus musculus, C3H 10T1/2, 24 h, 30 nM Shh, luciferase activity (RLU), read-out: IC50 values of compounds that inhibit Hh pathway
How it was run: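 IC50 from nonlinear fit of luciferase RLU versus log compound concentration. Stably transfected C3H10T1/2/Gli-Luc cells received a 7-point compound series alongside Shh (30 nM in the added medium) for 24 h at 37 °C in DMEM/10% FBS, then were lysed for luciferase readout.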

[3] = test system: Hedgehog Signaling Pathway; assay: SHH-induced differentiation of C3H10T1/2 cells into osteoblastic cells, intracellular alkaline phosphatase activity; conditions: 10 nM SHH-N, 5 days, alkaline phosphatase activity (OD405), read-out: IC50 values of compounds that inhibit Hh pathway
How it was run: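 Hedgehog pathway inhibition was taken as loss of SHH-driven osteoblastic differentiation. Test compound (10 nM–10 μM) plus SHH-N (10 nM) was applied to C3H10T1/2 cells for 5 days, then lysate phosphatase turnover was measured as the 30-min OD405 change at 37 °C. IC50 was fitted from activity versus log dose.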

[4] = Mus musculus, C3H 10T1/2, 120 h

Row | SMILES | IC50 [1] | IC50 [2] | IC50 [3, 4] | IC50 [3]
1 | Cc1cc(N2C[C@@H](C)N(C)[C@@H](C)C2)ccc1C(=O)Nc1ccc(Cl)c(-c2nc3ccccc3[nH]2)c1 [Example 93, N-(3-(1H-benzo[d]imidazol-2-yl)-4-chlorophenyl)-2-methyl-4-((3S,5R)-3,4,5-trimethylpiperazin-1-yl)benzamide] | 32 nM | 0.5 nM | 0.69 nM | –
2 | C[C@@H]1CN(c2ccc(C(=O)Nc3ccc(Cl)c(-c4nc5ccccc5[nH]4)c3)c(Cl)c2)C[C@H](C)N1C [Example 94, N-(3-(1H-benzo[d]imidazol-2-yl)-4-chlorophenyl)-2-chloro-4-((3S,5R)-3,4,5-trimethylpiperazin-1-yl)benzamide] | 16 nM | 0.63 nM | 0.81 nM | –
3 | C[C@@H]1CN(c2ccc(C(=O)Nc3ccc(Cl)c(-c4nc5ccccc5[nH]4)c3)c(F)c2)C[C@H](C)N1C [Example 95, N-(3-(1H-benzo[d]imidazol-2-yl)-4-chlorophenyl)-2-fluoro-4-((3S,5R)-3,4,5-trimethylpiperazin-1-yl)benzamide] | 111 nM | 3.3 nM | 13 nM | –
4 | C[C@@H]1CN(c2ccc(C(=O)Nc3ccc(Cl)c(-c4nc5ccc(Cl)cc5[nH]4)c3)c(Cl)c2)C[C@H](C)N1C [Example 96, N-(3-(6-chloro-1H-benzo[d]imidazol-2-yl)-4-chlorophenyl)-2-chloro-4-((3S,5R)-3,4,5-trimethylpiperazin-1-yl)benzamide] | 106 nM | 3.3 nM | 5 nM | –
5 | Cc1cc(N2C[C@@H](C)N(C)[C@@H](C)C2)ccc1C(=O)Nc1ccc(Cl)c(-c2nc3ccc(Cl)cc3[nH]2)c1 [Example 97, N-(3-(6-chloro-1H-benzo[d]imidazol-2-yl)-4-chlorophenyl)-2-methyl-4-((3S,5R)-3,4,5-trimethylpiperazin-1-yl)benzamide] | 32 nM | 1.7 nM | 0.59 nM | –
6 | Cc1cc(N2C[C@@H](C)N(C)[C@@H](C)C2)ccc1C(=O)Nc1ccc(Cl)c(-c2nc3ccc(F)cc3[nH]2)c1 [Example 98, N-(3-(6-fluoro-1H-benzo[d]imidazol-2-yl)-4-chlorophenyl)-2-methyl-4-((3S,5R)-3,4,5-trimethylpiperazin-1-yl)benzamide] | 24 nM | 0.96 nM | 1.4 nM | –
7 | C[C@@H]1CN(c2ccc(C(=O)Nc3ccc(Cl)c(-c4nc5ccc(F)cc5[nH]4)c3)c(Cl)c2)C[C@H](C)N1C [Example 99, N-(3-(6-fluoro-1H-benzo[d]imidazol-2-yl)-4-chlorophenyl)-2-chloro-4-((3S,5R)-3,4,5-trimethylpiperazin-1-yl)benzamide] | 81 nM | 1.6 nM | – | 2.6 nM
8 | CCN1[C@H](C)CN(c2ccc(C(=O)Nc3ccc(Cl)c(-c4nc5ccccc5[nH]4)c3)c(C)c2)C[C@@H]1C [Example 100, N-(3-(1H-benzo[d]imidazol-2-yl)-4-chlorophenyl)-2-methyl-4-((3S,5R)-4-ethyl-3,5-dimethylpiperazin-1-yl)benzamide] | 33 nM | 0.58 nM | 2.3 nM | –
9 | Cc1cc(N2C[C@@H](C)N(C(C)C)[C@@H](C)C2)ccc1C(=O)Nc1ccc(Cl)c(-c2nc3ccccc3[nH]2)c1 [Example 101, N-(3-(1H-benzo[d]imidazol-2-yl)-4-chlorophenyl)-2-methyl-4-((3S,5R)-4-isopropyl-3,5-dimethylpiperazin-1-yl)benzamide] | 46 nM | 0.67 nM | 0.64 nM | –
10 | CN1CCN(c2ccc(C(=O)Nc3ccc(Cl)c(-c4nc5ccccc5[nH]4)c3)cn2)CC1 [Example 103, N-(3-(1H-benzo[d]imidazol-2-yl)-4-chlorophenyl)-6-(4-methylpiperazin-1-yl)nicotinamide] | 449 nM | 9.4 nM | 40 nM | –
11 | C[C@@H]1CN(c2ccc(C(=O)Nc3ccc(Cl)c(-c4nc5ccccc5[nH]4)c3)cn2)C[C@H](C)N1C [Example 104, N-(3-(1H-benzo[d]imidazol-2-yl)-4-chlorophenyl)-6-((3S,5R)-3,4,5-trimethylpiperazin-1-yl)nicotinamide] | 58 nM | 0.94 nM | 0.61 nM | –
12 | CCN1[C@H](C)CN(c2ccc(C(=O)Nc3ccc(Cl)c(-c4nc5ccccc5[nH]4)c3)cn2)C[C@@H]1C [Example 105, N-(3-(1H-benzo[d]imidazol-2-yl)-4-chlorophenyl)-6-((3S,5R)-4-ethyl-3,5-dimethylpiperazin-1-yl)nicotinamide] | 58 nM | 1.1 nM | 2.2 nM | –
13 | Cc1cc(N2C[C@@H](C)N(C)[C@@H](C)C2)ncc1C(=O)Nc1ccc(Cl)c(-c2nc3ccccc3[nH]2)c1 [Example 107, N-(3-(1H-benzo[d]imidazol-2-yl)-4-chlorophenyl)-4-methyl-6-((3S,5R)-3,4,5-trimethylpiperazin-1-yl)nicotinamide] | 47 nM | 0.75 nM | 2.3 nM | –
14 | Cc1cc(N2C[C@@H](C)N[C@@H](C)C2)ccc1C(=O)Nc1ccc(Cl)c(-c2nc3ccccc3[nH]2)c1 [Example 109, N-(3-(1H-benzo[d]imidazol-2-yl)-4-chlorophenyl)-2-methyl-4-((3S,5R)-3,5-dimethylpiperazin-1-yl)benzamide] | 96 nM | 3.8 nM | 6.4 nM | –
15 | C[C@@H]1CN(c2ccc(C(=O)Nc3ccc(Cl)c(-c4nc5ccccc5n4C)c3)c(Cl)c2)C[C@H](C)N1C [Example 110, N-(3-(1-methyl-1H-benzo[d]imidazol-2-yl)-4-chlorophenyl)-2-chloro-4-((3S,5R)-3,4,5-trimethylpiperazin-1-yl)benzamide] | 28 nM | 0.57 nM | 0.66 nM | –
16 | Cc1ccc2nc(-c3cc(NC(=O)c4ccc(N5C[C@@H](C)N(C)[C@@H](C)C5)cc4Cl)ccc3Cl)[nH]c2c1 [Example 111, N-(3-(6-methyl-1H-benzo[d]imidazol-2-yl)-4-chlorophenyl)-2-chloro-4-((3S,5R)-3,4,5-trimethylpiperazin-1-yl)benzamide] | 68 nM | 2.2 nM | 0.94 nM | –
17 | Cc1ccc2nc(-c3cc(NC(=O)c4ccc(N5C[C@@H](C)N(C)[C@@H](C)C5)cc4C)ccc3Cl)[nH]c2c1 [Example 112, N-(3-(6-methyl-1H-benzo[d]imidazol-2-yl)-4-chlorophenyl)-2-methyl-4-((3S,5R)-3,4,5-trimethylpiperazin-1-yl)benzamide] | 83 nM | 5.5 nM | 8.6 nM | –
18 | Cc1ccc(NC(=O)c2ccc(N3C[C@@H](C)N(C)[C@@H](C)C3)cc2Cl)cc1-c1nc2ccc(Cl)cc2[nH]1 [Example 113, N-(3-(6-chloro-1H-benzo[d]imidazol-2-yl)-4-methylphenyl)-2-chloro-4-((3S,5R)-3,4,5-trimethylpiperazin-1-yl)benzamide] | 1040 nM | 27 nM | > 10000 nM | –
19 | CCN1[C@H](C)CN(c2ccc(C(=O)Nc3ccc(Cl)c(-c4nc5ccc(F)cc5[nH]4)c3)c(Cl)c2)C[C@@H]1C [Example 114, N-(3-(6-fluoro-1H-benzo[d]imidazol-2-yl)-4-chlorophenyl)-2-chloro-4-((3S,5R)-4-ethyl-3,5-dimethylpiperazin-1-yl)benzamide] | 77 nM | 0.85 nM | 9 nM | –
20 | Cc1ccc(NC(=O)c2ccc(N3C[C@@H](C)N(C)[C@@H](C)C3)cc2Cl)cc1-c1nc2ccc(F)cc2[nH]1 [Example 115, N-(3-(6-fluoro-1H-benzo[d]imidazol-2-yl)-4-methylphenyl)-2-chloro-4-((3S,5R)-3,4,5-trimethylpiperazin-1-yl)benzamide] | 145 nM | 3.4 nM | 31 nM | –
21 | Cc1nc(N2C[C@@H](C)N(C)[C@@H](C)C2)ccc1C(=O)Nc1ccc(Cl)c(-c2nc3ccccc3[nH]2)c1 [Example 116, N-(3-(1H-benzo[d]imidazol-2-yl)-4-chlorophenyl)-2-methyl-6-((3S,5R)-3,4,5-trimethylpiperazin-1-yl)nicotinamide] | 68 nM | 1.4 nM | 2.1 nM | –
22 | C[C@@H]1CN(c2ccc(C(=O)Nc3ccc(Cl)c(-c4nc5ccccc5[nH]4)c3)c(Cl)n2)C[C@H](C)N1C [Example 117, N-(3-(1H-benzo[d]imidazol-2-yl)-4-chlorophenyl)-2-chloro-6-((3S,5R)-3,4,5-trimethylpiperazin-1-yl)nicotinamide] | 27 nM | 1.2 nM | 4.6 nM | –
23 | C[C@@H]1CN(c2ccc(C(=O)Nc3ccc(Cl)c(-c4nc5ccccc5[nH]4)c3)cc2)C[C@H](C)N1C [Example 118, N-(3-(1H-benzo[d]imidazol-2-yl)-4-chlorophenyl)-4-((3S,5R)-3,4,5-trimethylpiperazin-1-yl)benzamide] | 260 nM | 5.1 nM | 13 nM | –
24 | C[C@@H]1CN(c2ccc(C(=O)Nc3ccc(Cl)c(-c4nc5ccccc5[nH]4)c3)c(C(F)(F)F)c2)C[C@H](C)N1C [Example 119, N-(3-(1H-benzo[d]imidazol-2-yl)-4-chlorophenyl)-2-(trifluoromethyl)-4-((3S,5R)-3,4,5-trimethylpiperazin-1-yl)benzamide] | 39 nM | 0.45 nM | 0.76 nM | –
